The test has as its system T1, voltage T-type Ca2+ channel (α1H; Cav3.1).
T1 construct: gene CACNA1H; α1H cDNA in pcDNA3, expressed in HEK 293 cells; Cav3.1 would be α1G (CACNA1G)
Nature of the test: whole-cell patch clamp. In kind it is cell-based, Homo sapiens. Particulars: HEK-293 cells stably expressing α1H; 5 mM CaCl2 external, pH 7.4; Vh -90 mV; positive control, data not shown. On the technique in general: Patch clamp records ionic current or voltage across a cell membrane.

SMILES strings stand for the structures.

By IC50 is commonly meant the concentration that gives 50% inhibition. Read a high IC50 as weaker potency in that assay.

`CN1CCN(c2ncc(-c3cc(Cl)cc(Cl)c3Cl)c(N)n2)CC1` [Sipatrigine]: the half-maximal inhibitory concentration (IC50) was about 30 µM.

(Values after article PMC9319510, “The Multistage Antimalarial Compound Calxinin Perturbates P. falciparum Ca^2+ Homeostasis by Targeting a Unique Ion Channel” (Pharmaceutics, 2022).)
